From patent US12342842B2, “Preparation for use in enhancing formation of short-chain fatty acids (SCFAs)” (Evonik Operations GmbH, priority 2019, dated 2025)

Key:
human colonic microbiota [1] = test: I-screen fermentation, SCFA analysis with omega-3 amino acid salts, FFA and amino acids (Examples 5 and 6); format: cell-based; settings: salts 1.4 mg/ml; for Iso-butyrate / Iso-valerate: 24 h in SIEM, FFA 0.95 mg/ml, amino acids 0.5 mg/ml, means of triplicates; for Iso-butyrate: control 1.21; for Iso-valerate: control 2.74; for Propionate/acetate ratio / Propionate / Acetate: FFA 0.96 mg/ml, L-lysine 0.49, L-arginine 0.52, L-ornithine 0.5 mg/ml; for Propionate/acetate ratio: control 0.48; for Propionate: control 7.37; for Acetate: control 15.21
human colonic microbiota [2] = test: I-screen intestinal screening model, microbiota composition by V4 16S rRNA gene sequencing (Example 1); format: cell-based; settings: omega-3-lys, EE, fish oil 1.4 mg/ml, inulin 4 mg/ml, means of triplicates
Text: To determine the effect of omega-3 compounds on adult colonic microbiota, an intestinal screening model was used (I-screen, TNO, the Netherlands), which corresponds to colonic environment. A translation of such in vitro experiment towards an application in a living organism (animal or human) requires the use of a colon-specific delivery form to circumvent absorption of fatty acids in upper parts of the gastrointestinal tract. The use of compositions comprising omega-3 compounds in formulations enabling a colon-specific delivery is part of the present invention. […]
The microbiota composition was analyzed by 16S rRNA gene amplicon sequencing of the V4 hypervariable region. […]
The amount of bacterial DNA in the i-screen DNA samples was determined by quantitative polymerase chain reaction (qPCR) using primers specific for the bacterial 16S rRNA gene: Forward primer: CGAAAGCGTGGGGAGCAAA; Reverse primer: GTTCGTACTCCCCAGGCGG; Probe: 6FAM-[…]-MGB.
Subsequently, PCR amplicons of the V4 hypervariable region of the 16S rRNA gene were generated for the individual samples by amplification of 500 pg of DNA as described by Kozich et al. (2013), using F515/R806 primers (Caporaso et al. 2011). […] The amount of amplified DNA per sample was quantified using the dsDNA 910 Reagent Kit on the Fragment Analyzer (Advanced Analytical). […]

N=C(N)NCCC[C@H](N)C(=O)O [Arg, L-arginine]
Iso-butyrate (human colonic microbiota [1]): 1.21 mM
Iso-valerate (human colonic microbiota [1]): 3.71 mM
Propionate/acetate ratio (human colonic microbiota [1]): 0.40
Propionate (human colonic microbiota [1]): 9.39 mM
Acetate (human colonic microbiota [1]): 23.50 mM

NCCCC[C@H](N)C(=O)O [Lys, L-lysine]
Iso-butyrate (human colonic microbiota [1]): 1.47 mM
Iso-valerate (human colonic microbiota [1]): 3.57 mM
Propionate/acetate ratio (human colonic microbiota [1]): 0.40
Propionate (human colonic microbiota [1]): 9.49 mM
Acetate (human colonic microbiota [1]): 24.03 mM

NCCC[C@H](N)C(=O)O [Orn, L-ornithine]
Iso-butyrate (human colonic microbiota [1]): 1.37 mM
Iso-valerate (human colonic microbiota [1]): 3.31 mM
Propionate/acetate ratio (human colonic microbiota [1]): 0.36
Propionate (human colonic microbiota [1]): 9.11 mM
Acetate (human colonic microbiota [1]): 25.36 mM

inulin
Effect on colonic microbiota after 24 h incubation (variance explained versus control) (human colonic microbiota [2]): 40.2%
